Patent publication US20250195521A1 (Revolution Medicines, Inc., priority 2020, published 2025)
Where two headings read alike, the source gives them in different places.

Assays:
[1] = target: KRAS G13D binding to BRAF RBD (Homo sapiens (Human), UniProt P01116+P62937, G13D); experiment: Ras-Raf disruption/FRET/MOA assay, KRAS G13D; format: biochemical
Text: Note—The following protocol describes a procedure for monitoring disruption of K-Ras G12C(GMP-PNP) binding to BRAF^RBD by a compound of the invention. This protocol may also be executed substituting other Ras proteins or nucleotides.
(§1) The purpose of this biochemical assay was to measure the ability of test compounds to facilitate ternary complex formation between a nucleotide-loaded K-Ras isoform and Cyclophilin A; the resulting ternary complex disrupts binding to a BRAF^RBD construct, inhibiting K-Ras signaling through a RAF effector. Data is reported as IC50 values.
(§2) Compound was present in plate wells as a 10-point 3-fold dilution series starting at a final concentration of 30 μM. After incubation at 25° C. for 3 hours, a mixture of Anti-His Eu—W1024 and anti-GST allophycocyanin was then added to assay sample wells at final concentrations of 10 nM and 50 nM, respectively, and the reaction incubated for an additional 1.5 hours. […] Compounds that facilitate disruption of a K-Ras: RAF complex were identified as those eliciting a decrease in the TR-FRET ratio relative to DMSO control wells.

KRAS G12D = KRAS G12D (Homo sapiens (Human), UniProt P01116+P62937, G12D); experiment: Ras-Raf disruption/FRET/MOA assay, KRAS G12D; format: biochemical
Text: (§3) Disruption of B-Raf Ras-Binding Domain (BRAF^RBD) Interaction with K-Ras by Compounds of the Invention (Also Called a FRET Assay or an MOA Assay)
(§4) Note—The following protocol describes a procedure for monitoring disruption of K-Ras G12C (GMP-PNP) binding to BRAF^RBD by a compound of the invention. This protocol may also be executed substituting other Ras proteins or nucleotides, such as K-Ras G12D and K-Ras G13D.
as §1
as §2, with “In assay buffer containing 25 mM HEPES pH 7.3, 0.002% Tween20, 0.1% BSA, 100 mM NaCl and 5 mM MgCl2, tagless Cyclophilin A, His6-K-Ras-GMPPNP, and GST-BRAF^RBD were combined in a 384-well assay plate at final concentrations of 25 μM, 12.5 nM, and 50 nM, respectively. Compound was” for “Compound was”, “mixture of anti-His Eu—W1024 and” for “mixture of Anti-His Eu—W1024 and”

KRAS G12S = KRAS G12S (Homo sapiens (Human), UniProt P01116+P62937, G12S); experiment: Ras-Raf disruption/FRET/MOA assay, KRAS G12S; format: biochemical
Text: as §3, §4, §1
as §2, with “In assay buffer containing 25 mM HEPES pH 7.3, 0.002% Tween20, 0.1% BSA, 100 mM NaCl and 5 mM MgCl2, tagless Cyclophilin A, His6-K-Ras-GMPPNP, and GST-BRAF^RBD were combined in a 384-well assay plate at final concentrations of 25 μM, 12.5 nM, and 50 nM, respectively. Compound was” for “Compound was”, “mixture of anti-His Eu—W1024 and” for “mixture of Anti-His Eu—W1024 and”

AsPC-1 (K-Ras G12D) [2] = experiment: CellTiter-Glo cell viability assay, AsPC-1; format: cell-based, human; details: Homo sapiens, ASPC1, 120 h, read-out: AsPC-1 Cell Viability IC50
Procedure, shortened: (§5)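 Compounds dispensed directly onto seeded K-Ras mutant cells; plates read on day 5 after ~30 min equilibration to room temperature, by CellTiter-Glo luminescence. Signal normalized as (sample/mean DMSO)×100, then fitted to a four-parameter logistic curve.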

KRAS G12V = KRAS G12V (Homo sapiens (Human), UniProt P01116+P62937, G12V); experiment: Ras-Raf disruption/FRET/MOA assay, KRAS G12V; format: biochemical
Procedure, shortened: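 His6-Ras-GMPPNP 12.5 nM + GST-BRAF^RBD 50 nM + CypA 25 μM; HEPES pH 7.3, 5 mM MgCl2, 0.1% BSA, 0.002% Tween20. Cpd 10-pt 3-fold from 30 μM final, 3 h 25° C. Eu/APC antibody detection 1.5 h; TR-FRET ratio drop vs DMSO → IC50.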

NRAS G12C = NRAS G12C (Homo sapiens (Human), UniProt P01111+P62937, G12C); experiment: Ras-Raf disruption/FRET/MOA assay, NRAS G12C; format: biochemical
Text: as §3, §4, §1
as §2, with “In assay buffer containing 25 mM HEPES pH 7.3, 0.002% Tween20, 0.1% BSA, 100 mM NaCl and 5 mM MgCl2, tagless Cyclophilin A, His6-K-Ras-GMPPNP, and GST-BRAF^RBD were combined in a 384-well assay plate at final concentrations of 25 μM, 12.5 nM, and 50 nM, respectively. Compound was” for “Compound was”, “mixture of anti-His Eu—W1024 and” for “mixture of Anti-His Eu—W1024 and”

KRAS WT = KRAS WT (Homo sapiens (Human), UniProt P01116+P62937); experiment: Ras-Raf disruption/FRET/MOA assay, KRAS WT; format: biochemical
Text: as §3, §4, §1
as §2, with “In assay buffer containing 25 mM HEPES pH 7.3, 0.002% Tween20, 0.1% BSA, 100 mM NaCl and 5 mM MgCl2, tagless Cyclophilin A, His6-K-Ras-GMPPNP, and GST-BRAF^RBD were combined in a 384-well assay plate at final concentrations of 25 μM, 12.5 nM, and 50 nM, respectively. Compound was” for “Compound was”, “mixture of anti-His Eu—W1024 and” for “mixture of Anti-His Eu—W1024 and”

AsPC-1 (K-Ras G12D) [3] = experiment: Potency assay: pERK; format: cell-based, human; details: Homo sapiens, ASPC1, read-out: pERK EC50
Procedure, shortened: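 Cells plated overnight, then exposed 4 h at 37 °C to 10-point 3-fold dilutions of compound, in duplicate. pERK read by AlphaLISA SureFire Ultra p-ERK1/2 lysate assay or by In-Cell Western (pERK antibody, DRAQ5 DNA normalisation). IC50 from 4-parameter sigmoidal fit of signal vs log concentration.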

KRAS G13C = KRAS G13C (Homo sapiens (Human), UniProt P01116+P62937, G13C); experiment: Ras-Raf disruption/FRET/MOA assay, KRAS G13C; format: biochemical
Text: as §3, §4, §1
as §2, with “In assay buffer containing 25 mM HEPES pH 7.3, 0.002% Tween20, 0.1% BSA, 100 mM NaCl and 5 mM MgCl2, tagless Cyclophilin A, His6-K-Ras-GMPPNP, and GST-BRAF^RBD were combined in a 384-well assay plate at final concentrations of 25 μM, 12.5 nM, and 50 nM, respectively. Compound was” for “Compound was”, “mixture of anti-His Eu—W1024 and” for “mixture of Anti-His Eu—W1024 and”

KRAS G12C = KRAS G12C (Homo sapiens (Human), UniProt P01116+P62937, G12C); experiment: Ras-Raf disruption/FRET/MOA assay, KRAS G12C; format: biochemical
Text: as §3, §4, §1
as §2, with “In assay buffer containing 25 mM HEPES pH 7.3, 0.002% Tween20, 0.1% BSA, 100 mM NaCl and 5 mM MgCl2, tagless Cyclophilin A, His6-K-Ras-GMPPNP, and GST-BRAF^RBD were combined in a 384-well assay plate at final concentrations of 25 μM, 12.5 nM, and 50 nM, respectively. Compound was” for “Compound was”, “mixture of anti-His Eu—W1024 and” for “mixture of Anti-His Eu—W1024 and”

KRAS G13D = KRAS G13D (Homo sapiens (Human), UniProt P01116+P62937, G13D); experiment: Ras-Raf disruption/FRET/MOA assay, KRAS G13D; format: biochemical
Text: as §3, §4, §1
as §2, with “In assay buffer containing 25 mM HEPES pH 7.3, 0.002% Tween20, 0.1% BSA, 100 mM NaCl and 5 mM MgCl2, tagless Cyclophilin A, His6-K-Ras-GMPPNP, and GST-BRAF^RBD were combined in a 384-well assay plate at final concentrations of 25 μM, 12.5 nM, and 50 nM, respectively. Compound was” for “Compound was”, “mixture of anti-His Eu—W1024 and” for “mixture of Anti-His Eu—W1024 and”

NCI-H358 (K-Ras G12C) = experiment: CellTiter-Glo cell viability assay, H358; format: cell-based, human; details: Homo sapiens, NCI-H358, 120 h
Procedure, shortened: as §5

[4] = read-out: H358 Cell Viability IC50, K-Ras G12C, 5-day treatment

Sequence of KRAS G13C (P01116 other isoform, or with tags, fused parts or gaps G13C): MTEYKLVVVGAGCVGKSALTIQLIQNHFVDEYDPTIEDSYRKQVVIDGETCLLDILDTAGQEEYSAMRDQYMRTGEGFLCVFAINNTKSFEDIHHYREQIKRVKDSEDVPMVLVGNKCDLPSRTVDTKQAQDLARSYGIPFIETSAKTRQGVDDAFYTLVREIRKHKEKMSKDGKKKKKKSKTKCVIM
Sequence of KRAS G13C (P62937 whole entry): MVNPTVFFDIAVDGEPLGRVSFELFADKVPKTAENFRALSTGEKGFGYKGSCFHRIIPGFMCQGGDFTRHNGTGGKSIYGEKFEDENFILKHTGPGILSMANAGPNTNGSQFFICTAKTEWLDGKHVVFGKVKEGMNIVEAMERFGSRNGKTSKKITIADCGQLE
Sequence of KRAS G12D (P01116 other isoform, or with tags, fused parts or gaps G12D): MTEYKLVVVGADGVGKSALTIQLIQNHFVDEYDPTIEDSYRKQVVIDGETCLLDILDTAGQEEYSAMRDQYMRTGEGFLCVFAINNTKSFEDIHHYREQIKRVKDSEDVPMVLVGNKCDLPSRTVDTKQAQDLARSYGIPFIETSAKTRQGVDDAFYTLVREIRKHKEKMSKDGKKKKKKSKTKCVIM
Sequence of KRAS G12D (P62937 whole entry, the tested form may be a part): as the sequence (P62937 whole entry) above
Sequence of KRAS G13D (P01116 other isoform, or with tags, fused parts or gaps G13D): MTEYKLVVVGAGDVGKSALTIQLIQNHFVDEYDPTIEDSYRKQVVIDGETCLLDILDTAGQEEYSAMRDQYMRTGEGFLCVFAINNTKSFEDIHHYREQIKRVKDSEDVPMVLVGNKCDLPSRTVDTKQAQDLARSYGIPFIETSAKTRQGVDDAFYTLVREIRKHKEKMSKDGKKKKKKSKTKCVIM
Sequence of KRAS G13D (P62937 whole entry): as the sequence (P62937 whole entry) above
Sequence of KRAS G12C (P01116-2 other isoform, or with tags, fused parts or gaps G12C): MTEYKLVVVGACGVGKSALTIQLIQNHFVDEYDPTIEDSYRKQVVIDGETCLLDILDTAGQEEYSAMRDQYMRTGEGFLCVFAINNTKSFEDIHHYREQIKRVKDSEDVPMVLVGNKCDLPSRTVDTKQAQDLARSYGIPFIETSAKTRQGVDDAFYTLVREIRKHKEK
Sequence of KRAS G12C (P62937 whole entry): as the sequence (P62937 whole entry) above
Sequence of NRAS G12C (P01111 whole entry G12C): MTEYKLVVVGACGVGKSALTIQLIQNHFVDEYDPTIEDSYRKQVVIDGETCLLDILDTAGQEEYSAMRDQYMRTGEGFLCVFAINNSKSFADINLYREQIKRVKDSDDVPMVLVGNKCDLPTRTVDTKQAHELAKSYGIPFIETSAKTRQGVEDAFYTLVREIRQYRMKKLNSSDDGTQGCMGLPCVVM
Sequence of NRAS G12C (P62937 whole entry): as the sequence (P62937 whole entry) above
Sequence of KRAS WT (P01116 other isoform, or with tags, fused parts or gaps): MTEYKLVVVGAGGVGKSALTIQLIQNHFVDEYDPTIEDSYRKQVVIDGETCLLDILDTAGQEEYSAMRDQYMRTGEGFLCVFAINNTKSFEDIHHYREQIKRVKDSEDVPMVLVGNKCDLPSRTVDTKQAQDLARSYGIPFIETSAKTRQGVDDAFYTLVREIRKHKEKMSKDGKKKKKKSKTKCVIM
Sequence of KRAS WT (P62937 whole entry): as the sequence (P62937 whole entry) above
Sequence of KRAS G12V (P01116 other isoform, or with tags, fused parts or gaps G12V): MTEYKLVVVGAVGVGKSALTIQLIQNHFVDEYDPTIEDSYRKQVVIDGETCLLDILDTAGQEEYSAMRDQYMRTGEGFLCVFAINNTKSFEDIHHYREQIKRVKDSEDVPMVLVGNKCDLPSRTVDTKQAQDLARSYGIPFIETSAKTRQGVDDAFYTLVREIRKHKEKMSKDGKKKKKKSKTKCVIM
Sequence of KRAS G12V (P62937 whole entry): as the sequence (P62937 whole entry) above
Sequence of KRAS G12S (P01116 other isoform, or with tags, fused parts or gaps G12S): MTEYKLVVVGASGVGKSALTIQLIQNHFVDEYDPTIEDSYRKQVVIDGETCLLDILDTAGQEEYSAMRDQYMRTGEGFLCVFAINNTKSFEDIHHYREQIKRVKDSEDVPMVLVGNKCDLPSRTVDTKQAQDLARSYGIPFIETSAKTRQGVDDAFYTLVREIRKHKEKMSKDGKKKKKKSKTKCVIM
Sequence of KRAS G12S (P62937 whole entry): as the sequence (P62937 whole entry) above
Sequence of KRAS G13D binding to BRAF RBD (P01116 other isoform, or with tags, fused parts or gaps G13D): as the sequence (P01116 other isoform, or with tags, fused parts or gaps G13D) above
Sequence of KRAS G13D binding to BRAF RBD (P62937 whole entry): as the sequence (P62937 whole entry) above

Row | SMILES | IC50 (KRAS G12D) | IC50 (KRAS G12S) | IC50 (AsPC-1 (K-Ras G12D) [2]) | IC50 (KRAS G12V) | IC50 (NRAS G12C) | IC50 (KRAS WT) | EC50 (AsPC-1 (K-Ras G12D) [3]) | IC50 (KRAS G13C) | IC50 (KRAS G12C) | IC50 (KRAS G13D) | IC50 (NCI-H358 (K-Ras G12C); [4]) | other results
1 | CCn1c(-c2cccnc2[C@H](C)OC)c2c3cc(ccc31)-c1cccc(c1)C[C@H](NC(=O)[C@H](C(C)C)N1CC[C@]3(CCN(C(=O)C#CC(C)(C)N(C)C)C3)C1=O)C(=O)N1CCC[C@H](N1)C(=O)OCC(C)(C)C2 [Compound A414] |  |  |  |  |  |  |  |  |  |  |  | IC50 [1]: > 10 µM
2 | CCn1c(-c2cnccc2COC)c2c3cc(ccc31)-c1cc(O)cc(c1)C[C@H](NC(=O)[C@H](C(C)C)N(C)C(=O)CN(C)C(=O)[C@@H]1N[C@H]1c1ccccc1)C(=O)N1CCC[C@H](N1)C(=O)OCC(C)(C)C2 [Example 11] | 1 to 10 µM | 10 to 100 nM | 1000 to 10000 nM | 10 to 100 nM | 10 to 100 nM | 100 to 1000 nM | < 5 µM | 10 to 100 nM | 10 to 100 nM | 100 to 1000 nM | 100 to 1000 nM | 
3 | CCn1c(-c2cnccc2COC)c2c3cc(ccc31)-c1cc(O)cc(c1)C[C@H](NC(=O)[C@H](C(C)C)N(C)C(=O)CN(C)C(=O)[C@H]1N[C@@H]1c1ccccc1)C(=O)N1CCC[C@H](N1)C(=O)OCC(C)(C)C2 [Example 12] | 0.1 to 1 µM | 10 to 100 nM | 100 to 1000 nM | 10 to 100 nM | 10 to 100 nM | 10 to 100 nM | < 5 µM | 10 to 100 nM | 10 to 100 nM | 10 to 100 nM | 100 to 1000 nM | 
4 | CCn1c(-c2cccnc2COC)c2c3cc(ccc31)-c1cc(O)cc(c1)C[C@H](NC(=O)[C@H](C(C)C)N(C)C(=O)CCNC(=O)NCCCl)C(=O)N1CCC[C@H](N1)C(=O)OCC(C)(C)C2 [Example 25, (2S)-2-(3-(3-(2-chloroethyl)ureido)-N-methylpropanamido)-N-((6^3S,4S)-1^1-ethyl-25-hydroxy-1^2-(2-(methoxymethyl)pyridin-3-yl)-10,10-dimethyl-5,7-dioxo-6^1,6^2,6^3,6^4,6^5,6^6-hexahydro-1^1H-8-oxa-1 (5,3)-indola-6 (1,3)-pyridazina-2 (1,3)-benzenacycloundecaphane-4-yl)-3-methylbutanamide] | > 10 µM | > 10000 nM |  | 1000 to 10000 nM | > 10000 nM | 1000 to 10000 nM |  | 1000 to 10000 nM | 1000 to 10000 nM | 1000 to 10000 nM | > 10000 nM | 
5 | CCn1c(-c2cnccc2COC)c2c3cc(ccc31)-c1cc(O)cc(c1)C[C@H](NC(=O)[C@@H](CCNC1=NCCO1)C(C)C)C(=O)N1CCC[C@H](N1)C(=O)OCC(C)(C)C2 [Example 30] |  |  |  |  |  |  |  |  |  |  |  | IC50 (KRAS G12D; read-out: KRAS G12D FRET IC50): > 10 µM; IC50 (KRAS G12S; read-out: KRAS G12S FRET IC50): > 10000 nM; IC50 (KRAS G12V; read-out: KRAS G12V FRET IC50): 1000 to 10000 nM; IC50 (NRAS G12C; read-out: NRAS G12C FRET data IC50): > 10000 nM; IC50 (KRAS WT; read-out: KRAS WT FRET IC50): 1000 to 10000 nM; IC50 (KRAS G13C; read-out: KRAS G13C FRET IC50): > 10000 nM; IC50 (KRAS G12C; read-out: KRAS G12C FRET data IC50): 1000 to 10000 nM; IC50 (KRAS G13D; read-out: KRAS G13D FRET IC50): 1000 to 10000 nM; IC50 (NCI-H358 (K-Ras G12C); read-out: H358 Cell Viability IC50): 1000 to 10000 nM
